Experimental data from patent US6838453B2, “Antagonist derivatives of the vitronectin receptor” (Aventis Pharma S.A., priority 2000, dated 2005).
Counter-ions that a name gives are not always drawn.

Molecular target: human αvβ3 receptor (Homo sapiens, UniProt P05106+P06756)
Test: Kistrin/Vitronectin Receptor (αvβ3) ELISA test
Type: binding
Details: Kistrin-coated plates, co-incubated 3 hours at ambient temperature, 4B12-HRP antibody, OD 450 nm, read-out: K/VnR IC50
Description: Kistrin/Vitronectin Receptor (αvβ3) ELISA Test
96-well MaxiSorp planes are coated overnight at […] with 100 μl of Kistrin at 1 μg/ml (dilution in a coating buffer: carbonate 0.05 M/NaOH pH 9.6). The next day, the wells are emptied and the ligands (kistrin) are then fixed (fixing buffers: PBS containing 0.5% BSA (pH=7.4)) for 1 hour at ambient temperature with gentle agitation at 125 rpm. The wells are washed six times (washing buffer: PBS containing 0.05% of Tween 20 (pH 7.7) then the following are added per well and in this order: • 40 μl of incubation buffer • 10 μl of the dilution of the product to be tested (the products are diluted in a 50:50 mixture DMSO/Water) • 50 μl of human αvβ3 receptor (cf Pytella et al. Methods Enzymol. (1987) 144 (Dilution in incubation buffer, to be adapted according to the receptor batch and according to the ligand). The ligand, the αvβ3 receptor and the products to be studied are co-incubated for 3 hours at ambient temperature with gentle agitation at 125 rpm.
The wells are again washed six times, then incubated for 2 hours at ambient temperature with gentle agitation at 125 rpm, in the presence of 100 μl of anti-receptor antibody conjugated to a peroxidase (The 4B12-HRP antibody is diluted in an incubation buffer (50 mM TRIS pH 7.4; 0.5% BSA; 0.05% Tween 20; 1 mM MnCl2; 50 μM CaCl2; 50 μM MgCl2; 100 mM NaCl) The dilution is adapted according to the receptor batch.
The wells are then washed six times before measuring the ligand-receptor bond carried out using a peroxidase developer kit (TBM Microwell Peroxidase Substrate System Kirkegaard; Cat. Ref. 50-76-00).
This kit contains a bottle A of substrate (3,3′,5,5′-tetramethylebenzidine at 0.4 g/l) and a bottle B (H2O2 at 0.02% in a Citrate/Citric acid buffer). Extemporaneously, a volume of A is mixed with a volume of B, then the reaction mixture is distributed at a rate of 100 μl/well.
The enzymatic reaction develops between 6 and 10 minutes for Kistrin/αvβ3 then its evolution is stopped by the addition of 100 μl of 1M phosphoric acid. The optical density is determined at 450 nm.
Expression of the Results
The following curve is plotted: the bond percentage as a function of the logarithm of each concentration of the tested product.
For each product, the IC50 is determined according to the following formula: IC50=(B0+Bmin)/2 • B0=Maximum bond in the absence of any product • Bmin =Minimum bond in the presence of the highest concentration of the product.

human αvβ3 receptor, sequence (P06756 31-889 limits assumed): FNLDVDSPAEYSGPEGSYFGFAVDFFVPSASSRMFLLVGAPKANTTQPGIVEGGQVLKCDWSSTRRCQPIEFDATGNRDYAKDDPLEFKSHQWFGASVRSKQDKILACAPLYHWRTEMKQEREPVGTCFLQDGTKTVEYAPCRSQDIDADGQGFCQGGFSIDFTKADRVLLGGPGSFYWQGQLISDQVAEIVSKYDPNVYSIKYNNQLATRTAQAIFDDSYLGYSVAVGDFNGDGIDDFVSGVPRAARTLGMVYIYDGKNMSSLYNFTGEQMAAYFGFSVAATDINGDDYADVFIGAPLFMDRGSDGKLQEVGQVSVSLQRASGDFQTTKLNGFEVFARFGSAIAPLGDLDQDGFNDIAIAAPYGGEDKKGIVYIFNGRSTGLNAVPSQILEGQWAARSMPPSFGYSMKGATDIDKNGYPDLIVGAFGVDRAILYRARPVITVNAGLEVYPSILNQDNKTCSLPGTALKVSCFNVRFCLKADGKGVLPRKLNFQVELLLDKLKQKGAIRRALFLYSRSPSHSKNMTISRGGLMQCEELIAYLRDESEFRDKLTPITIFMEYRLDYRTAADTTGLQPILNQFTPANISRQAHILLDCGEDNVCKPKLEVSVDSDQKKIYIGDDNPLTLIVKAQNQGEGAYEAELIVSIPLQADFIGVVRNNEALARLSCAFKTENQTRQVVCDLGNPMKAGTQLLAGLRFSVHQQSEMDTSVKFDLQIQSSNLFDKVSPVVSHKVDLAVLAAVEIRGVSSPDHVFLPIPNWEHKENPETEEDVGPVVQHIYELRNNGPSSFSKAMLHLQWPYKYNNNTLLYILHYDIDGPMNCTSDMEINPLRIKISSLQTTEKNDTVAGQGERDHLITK
human αvβ3 receptor, sequence (P06756 891-1048 limits assumed): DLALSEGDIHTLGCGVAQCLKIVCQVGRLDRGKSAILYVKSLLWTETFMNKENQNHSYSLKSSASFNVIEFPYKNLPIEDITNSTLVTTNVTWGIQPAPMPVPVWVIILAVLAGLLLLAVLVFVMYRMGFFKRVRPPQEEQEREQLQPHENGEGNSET
human αvβ3 receptor, sequence (P05106 27-788): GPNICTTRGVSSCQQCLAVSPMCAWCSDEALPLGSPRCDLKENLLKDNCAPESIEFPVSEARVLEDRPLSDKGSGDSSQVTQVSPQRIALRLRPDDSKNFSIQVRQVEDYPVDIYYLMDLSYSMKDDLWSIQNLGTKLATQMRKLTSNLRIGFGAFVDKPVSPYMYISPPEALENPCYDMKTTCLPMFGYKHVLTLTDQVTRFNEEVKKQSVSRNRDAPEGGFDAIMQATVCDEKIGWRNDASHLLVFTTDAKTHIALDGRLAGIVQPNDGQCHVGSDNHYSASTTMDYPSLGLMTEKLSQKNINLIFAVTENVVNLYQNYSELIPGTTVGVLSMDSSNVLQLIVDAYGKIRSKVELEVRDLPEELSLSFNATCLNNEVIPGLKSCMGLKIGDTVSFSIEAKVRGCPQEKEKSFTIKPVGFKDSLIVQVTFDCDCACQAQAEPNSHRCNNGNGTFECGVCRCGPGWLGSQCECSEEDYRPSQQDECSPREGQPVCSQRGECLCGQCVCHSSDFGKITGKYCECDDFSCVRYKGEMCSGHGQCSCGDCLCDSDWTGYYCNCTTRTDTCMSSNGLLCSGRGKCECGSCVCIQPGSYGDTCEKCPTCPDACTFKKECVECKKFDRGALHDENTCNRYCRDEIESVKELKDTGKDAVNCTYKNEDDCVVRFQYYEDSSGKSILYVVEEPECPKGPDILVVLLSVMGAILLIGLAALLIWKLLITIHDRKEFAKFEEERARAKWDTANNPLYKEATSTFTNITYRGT

Row | Compound | IC50 [nM]
1 | O=C(O)[C@H](Cc1ccc(OCCCc2ccc3c(n2)NCCC3)cc1)Nc1nnnn1Cc1ccccc1 [Example 1, N-[1-(phenylmethyl)-1H-tetrazol-5-yl]-O-[3-(5,6,7,8-tetrahydro-1,8-naphthyridin-2-yl)propyl]-L-tyrosine] | 9
2 | O=C(O)[C@H](Cc1ccc(OCCCc2ccc3c(n2)NCCC3)cc1)Nc1nc2ccccc2s1 [Example 2, N-(2-benzothiazolyl)-O-[3-(5,6,7,8-tetrahydro-1,8-naphthyridin-2-yl)propyl]-L-tyrosine] | 70
3 | O=C(O)[C@H](Cc1ccc(OCCCc2ccc3c(n2)NCCC3)cc1)Nc1nc2ccccc2o1 [Example 3, N-(2-benzoxazolyl)-O-[3-(5,6,7,8-tetrahydro-1,8-naphthyridin-2-yl)propyl]-L-tyrosine] | 50
4 | COc1ccc2[nH]c(N[C@@H](Cc3ccc(OCCCC(=O)NC4=NCCCN4)cc3)C(=O)O)nc2c1 [Example 4a] | 19
5 | Cc1ccc2[nH]c(N[C@@H](Cc3ccc(OCCCC(=O)NC4=NCCCN4)cc3)C(=O)O)nc2c1 [Example 4b, N-[5-methyl-1H-benzimidazol-2-yl]-O-[4-oxo-4-[(1,4,5,6-tetrahydro-2-pyrimidinyl)amino]butyl]-L-tyrosine] | 14
6 | O=C(CCCOc1ccc(C[C@H](Nc2nnnn2Cc2ccccc2)C(=O)O)cc1)NC1=NCCCN1 [Example 5, O-[4-oxo-4-[(1,4,5,6-tetrahydro-2-pyrimidinyl)amino]butyl]-N-[1-(phenylmethyl)-1H-tetrazol-5-yl]-L-tyrosine] | 15
7 | O=C(CCCOc1ccc(C[C@H](Nc2nc3ccc(Br)cc3s2)C(=O)O)cc1)NC1=NCCCN1 [Example 8, N-(6-bromo-2-benzothiazolyl)-O-[4-oxo-4-[(1,4,5,6-tetrahydro-2-pyrimidinyl)amino]butyl]-L-tyrosine] | 8
8 | O=C(CCCOc1ccc(C[C@H](Nc2nc3cc(Br)cc(F)c3o2)C(=O)O)cc1)NC1=NCCCN1 [Example 9, N-[5-bromo-7-fluoro-2-benzoxazolyl)-O-[4-oxo-4-[(1,4,5,6-tetrahydro-2-pyrimidinyl)amino]butyl]-L-tyrosine] | 9
9 | O=C(CCCOc1ccc(C[C@H](Nc2nc3cccc(F)c3o2)C(=O)O)cc1)NC1=NCCCN1 [Example 12, N-(7-fluoro-2-benzoxazolyl)-O-[4-oxo-4-[(1,4,5,6-tetrahydro-2-pyrimidinyl)amino]butyl]-L-tyrosine] | 9
10 | O=C(CCCOc1ccc(C[C@H](Nc2nc3ccc(Cl)cc3o2)C(=O)O)cc1)NC1=NCCCN1 [Example 16, N-(6-chloro-2-benzoxazolyl)-O-[4-oxo-4-[(1,4,5,6-tetrahydro-2-pyrimidinyl)amino]butyl]-L-tyrosine] | 9
11 | O=C(CCCOc1ccc(C[C@H](Nc2nc3cc(Cl)ccc3o2)C(=O)O)cc1)NC1=NCCCN1 [Example 17, N-(5-chloro-2-benzoxazolyl)-O-[4-oxo-4-[(1,4,5,6-tetrahydro-2-pyrimidinyl)amino]butyl]-L-tyrosine] | 9
12 | O=C(CCCOc1ccc(C[C@H](Nc2nc3cc(Br)ccc3o2)C(=O)O)cc1)NC1=NCCCN1 [Example 18, N-(5-bromo-2-benzoxazolyl)-O-[4-oxo-4-[(1,4,5,6-tetrahydro-2-pyrimidinyl)amino]butyl]-L-tyrosine trifluoroacetate] | 11
13 | O=C(CCCOc1ccc(C[C@H](Nc2nc3c(ccc4ccccc43)o2)C(=O)O)cc1)NC1=NCCCN1 [Example 20, N-(naphth[1,2-d]oxazol-2-yl)-O-[4-oxo-4-[(1,4,5,6-tetrahydro-2-pyrimidinyl)amino]butyl]-L-tyrosine] | 35
14 | O=C(CCCOc1ccc(C[C@H](Nc2nc3ccc([N+](=O)[O-])cc3o2)C(=O)O)cc1)NC1=NCCCN1 [Example 22, N-(6-nitro-2-benzoxazolyl)-O-[4-oxo-4-[(1,4,5,6-tetrahydro-2-pyrimidinyl)amino]butyl]-L-tyrosine] | 8
15 | O=C(CCCOc1ccc(C[C@H](Nc2nc3cc(C(F)(F)F)ccc3o2)C(=O)O)cc1)NC1=NCCCN1 [Example 23, O-[4-oxo-4-[(1,4,5,6-tetrahydro-2-pyrimidinyl)amino]butyl]-N-[5-(trifluoromethyl)-2-benzoxazolyl)-L-tyrosine] | 10
16 | O=C(CCCOc1ccc(C[C@H](Nc2nc3ccc(F)c(F)c3o2)C(=O)O)cc1)NC1=NCCCN1 [Example 27, N-(6,7-difluoro-2-benzoxazolyl)-O-[4-oxo-4-[(1,4,5,6-tetrahydro-2-pyrimidinyl)amino]butyl]-L-tyrosine] | 12

The next compounds have a lower IC50 than those just listed; values first:

Row | IC50 [nM] | Compound
17 | 5 | O=C(CCCOc1ccc(C[C@H](Nc2nc3ccccc3o2)C(=O)O)cc1)NC1=NCCCN1 [Example 6, N-(2-benzoxazolyl)-O-[4-oxo-4-[(1,4,5,6-tetrahydro-2-pyrimidinyl)amino]butyl]-L-tyrosine]
18 | 6 | O=C(CCCOc1ccc(C[C@H](Nc2nc3ccccc3s2)C(=O)O)cc1)NC1=NCCCN1 [Example 7, N-(2-benzothiazolyl)-O-[4-oxo-4-[(1,4,5,6-tetrahydro-2-pyrimidinyl)amino]butyl]-L-tyrosine]
19 | 6 | O=C(CCc1ccc(C(=O)NC[C@H](Nc2nc3cc(Br)ccc3o2)C(=O)O)cc1)NC1=NCCCN1 [Example 10, N-(5-bromo-2-benzoxazolyl)-3-[[4-[3-oxo-3-[(1,4,5,6-tetrahydro-2-pyrimidinyl)amino]propyl]benzoyl]amino]-L-alanine]
20 | 7 | O=C(CCc1ccc(C(=O)NC[C@H](Nc2nc3ccc(Br)cc3s2)C(=O)O)cc1)NC1=NCCCN1 [Example 11, N-(6-bromo-2-benzothiazolyl)-3-[[4-[3-oxo-3-[(1,4,5,6-tetrahydro-2-pyrimidinyl)amino]propyl]benzoyl]amino]-L-alanine]
21 | 7 | O=C(CCCOc1ccc(C[C@H](Nc2nc3ccc(F)cc3o2)C(=O)O)cc1)NC1=NCCCN1 [Example 13, N-(6-fluoro-2-benzoxazolyl)-O-[4-oxo-4-[(1,4,5,6-tetrahydro-2-pyrimidinyl)amino]butyl]-L-tyrosine]
22 | 7 | O=C(CCCOc1ccc(C[C@H](Nc2nc3cc(F)ccc3o2)C(=O)O)cc1)NC1=NCCCN1 [Example 14, N-(5-fluoro-2-benzoxazolyl)-O-[4-oxo-4-[(1,4,5,6-tetrahydro-2-pyrimidinyl)amino]butyl]-L-tyrosine trifluoroacetate]
23 | 5 | O=C(CCCOc1ccc(C[C@H](Nc2nc3cccc(Cl)c3o2)C(=O)O)cc1)NC1=NCCCN1 [Example 15, N-(7-chloro-2-benzoxazolyl)-O-[4-oxo-4-[(1,4,5,6-tetrahydro-2-pyrimidinyl)amino]butyl]-L-tyrosine trifluoroacetate]
24 | 6 | O=C(CCCOc1ccc(C[C@H](Nc2nc3cc4ccccc4cc3o2)C(=O)O)cc1)NC1=NCCCN1 [Example 19, N-(naphth[2,3-d]oxazol-2-yl)-O-[4-oxo-4-[(1,4,5,6-tetrahydro-2-pyrimidinyl)amino]butyl]-L-tyrosine]
25 | 6 | O=C(CCCOc1ccc(C[C@H](Nc2nc3cc(-c4ccccc4)ccc3o2)C(=O)O)cc1)NC1=NCCCN1 [Example 21, O-[4-oxo-4-[(1,4,5,6-tetrahydro-2-pyrimidinyl)amino]butyl]-N-(5-phenyl-2-benzoxazolyl)-L-tyrosine]
